Columns and labels:
Tomato thrips = experiment: In vitro bio-efficacy, Tomato thrips (Ex. 57); conditions: Dose 0.17 ml/lit
[1] = tested on: Cotton Bacterial Leaf Blight (Xanthomonas citri pv. Malvacearum); experiment: Field trial, cotton bacterial leaf blight (Ex. 96); conditions: dose 500 PPM
[2] = tested on: Potato Bacterial Blight (BLB) (Ralstonia solanacearum); format: in vivo; conditions: dose 500 PPM
[3] = tested on: Rice Bacterial Blight (BLB) (Xanthomonas oryzae pv. Oryzae); format: in vivo; conditions: dose 500 PPM

## CN(C(=O)c1ccccc1)c1cccc(C(=O)Nc2c(Br)cc(C(F)(C(F)(F)F)C(F)(F)F)cc2C(F)(F)F)c1F [Brofranilide]
Tomato thrips
  % Corrected Mortality at 72 hrs.: 47.37%
  % Mortality at 72 hrs.: 50.0%
  Total no of dead insects at 72 hrs.: 20.0

## O=[N+]([O-])C(Br)(CO)CO [Bromopol]
[1]; cotton
  % Increase in yield over control: 7.93%
  Yield: 24.96 qtl/ha
[1]
  % Disease Infection after 1st spray: 30.65%
  % Disease Infection after 2nd spray: 12.86%
  % Disease Reduction Over Control after 1st spray: 47.43%
  % Disease Reduction Over Control after 2nd spray: 81.68%
[2]
  % Disease Infection after 1st spray: 24.49%
  % Disease Infection after 2nd spray: 21.79%
  % Disease Reduction Over Control after 1st spray: 53.59%
  % Disease Reduction Over Control after 2nd spray: 71.13%
[2]; potato
  % Increase in yield over control: 7.64%
  Yield: 22.24 t/ha
[3]
  % Disease Infection after 1st spray: 22.18%
  % Disease Infection after 2nd spray: 19.63%
  % Disease Reduction Over Control after 1st spray: 61.71%
  % Disease Reduction Over Control after 2nd spray: 74.02%
[3]; rice
  % Increase in yield over control: 8.31%
  Yield: 4.09 t/ha

Reference: patent US20250351832A1, “PHYTOCHEMICALS AS BIOPESTICIDES AND BIOSTIMULANTS” (KAY BEE BIO ORGANICS PVT. LTD., priority 2024, published 2025)
